Assay results reported in patent US10202378B2, “Therapeutic compounds and uses thereof” (GENENTECH, INC., priority 2015, dated 2019).

Columns and labels:
TAF1-BD2 = TAF1-BD2 (Homo sapiens, UniProt P21675); assay: TAF1-BD2 TR-FRET Binding Assay; settings: read-out: TAF1-BD2 HTRF IC50
TAF1-BD1 = TAF1-BD1 (Homo sapiens, UniProt P21675); assay: TAF1-BD1 TR-FRET Binding Assay; settings: read-out: TAF1-BD1 HTRF IC50

| Compound | IC50 (TAF1-BD2) [nM] | IC50 (TAF1-BD1) [nM] |
| --- | --- | --- |
| Cc1[nH]c2c(=O)n(C)cc(C#CC(C)(O)C3CC3)c2c1C(=O)OCC(C)C (stereo not drawn) [Example 126, isobutyl 4-(3-cyclopropyl-3-hydroxy-but-1-ynyl)-2,6-dimethyl-7-oxo-1H-pyrrolo[2,3-c]pyridine-3-carboxylate] | 40.1 | 123 |
| Cc1[nH]c2c(=O)n(C)cc(C#CC(C)(O)CO)c2c1C(=O)OCC(C)C (stereo not drawn) [Example 127, isobutyl 4-(3,4-dihydroxy-3-methyl-but-1-ynyl)-2,6-dimethyl-7-oxo-1H-pyrrolo[2,3-c]pyridine-3-carboxylate] | 68.4 | 727 |
| Cc1[nH]c2c(=O)n(C)cc(C#CC(C)(O)C(C)C)c2c1C(=O)OCC(C)C (stereo not drawn) [Example 128, isobutyl 4-(3-hydroxy-3,4-dimethyl-pent-1-ynyl)-2,6-dimethyl-7-oxo-1H-pyrrolo[2,3-c]pyridine-3-carboxylate] | 62 | 253 |
| Cc1[nH]c2c(=O)n(C)cc(C#CC(O)(c3ccccc3)C(F)(F)F)c2c1C(=O)OCC(C)C (stereo not drawn) [Example 130, isobutyl 2,6-dimethyl-7-oxo-4-(4,4,4-trifluoro-3-hydroxy-3-phenyl-but-1-ynyl)-1H-pyrrolo[2,3-c]pyridine-3-carboxylate] | 280 | 1540 |
| Cc1[nH]c2c(=O)n(C)cc(C#CC(C)(C)O)c2c1C(=O)OCC(C)C [Example 132, isobutyl 4-(3-hydroxy-3-methyl-but-1-ynyl)-2,6-dimethyl-7-oxo-1H-pyrrolo[2,3-c]pyridine-3-carboxylate] | 29.9 | 173 |
| Cc1[nH]c2c(=O)n(C)cc(C#CC(C)(C)O)c2c1C(=O)OC(C)(C)C [Example 133, tert-butyl 4-(3-hydroxy-3-methyl-but-1-ynyl)-2,6-dimethyl-7-oxo-1H-pyrrolo[2,3-c]pyridine-3-carboxylate] | 31.1 | 308 |
| Cc1[nH]c2c(=O)n(C)cc(C#CC(C)(O)C3CC3)c2c1C(=O)OC(C)(C)CC#N (stereo not drawn) [Example 134, (2-cyano-1,1-dimethyl-ethyl)-4-(3-cyclopropyl-3-hydroxy-but-1-ynyl)-2,6-dimethyl-7-oxo-1H-pyrrolo[2,3-c]pyridine-3-carboxylate] | 26.8 | 222 |
| CC(=O)NCCCOC(=O)c1c(C)[nH]c2c(=O)n(C)cc(C#CC(O)(c3ccccc3)C(F)(F)F)c12 (stereo not drawn) [Example 135, 3-acetamidopropyl 2,6-dimethyl-7-oxo-4-(4,4,4-trifluoro-3-hydroxy-3-phenyl-but-1-ynyl)-1H-pyrrolo[2,3-c]pyridine-3-carboxylate] | 40.8 | 295 |
| Cc1[nH]c2c(=O)n(C)cc(C#CC(O)(c3ccccc3)C(F)(F)F)c2c1C(=O)OC(C)(C)CC#N (stereo not drawn) [Example 136, (2-cyano-1,1-dimethyl-ethyl) 2,6-dimethyl-7-oxo-4-(4,4,4-trifluoro-3-hydroxy-3-phenyl-but-1-ynyl)-1H-pyrrolo[2,3-c]pyridine-3-carboxylate] | 36.5 | 267 |
| CCCCC(C)(C)OC(=O)c1c(C)[nH]c2c(=O)n(C)cc(C#CC(C)(O)C3CC3)c12 (stereo not drawn) [Example 137, 1,1-dimethylpentyl 4-(3-cyclopropyl-3-hydroxy-but-1-ynyl)-2,6-dimethyl-7-oxo-1H-pyrrolo[2,3-c]pyridine-3-carboxylate] | 79 | 481 |
| CCC(C)(C)OC(=O)c1c(C)[nH]c2c(=O)n(C)cc(C#C[C@@](C)(O)c3cc(C)on3)c12 [Example 139, 1,1-dimethylpropyl 4-[(3R)-3-hydroxy-3-(5-methylisoxazol-3-yl)but-1-ynyl]-2,6-dimethyl-7-oxo-1H-pyrrolo[2,3-c]pyridine-3-carboxylate] | 47.7 | 232 |
| Cc1[nH]c2c(=O)n(C)cc(C#CC(C)(O)C3CC3)c2c1C(=O)OC(C)C(C)C (stereo not drawn) [Example 141, 1,2-dimethylpropyl 4-(3-cyclopropyl-3-hydroxy-but-1-ynyl)-2,6-dimethyl-7-oxo-1H-pyrrolo[2,3-c]pyridine-3-carboxylate] | 75.6 | 244 |
